Source: US9556256B2, “Inhibition of cancer metastasis” (The Board of Trustees of The University of Arkansas, priority 2006, dated 2017)
Entries after “also recorded” stand apart in the source; their conditions may differ.

Columns and labels:
P-Selectin = P-Selectin (Mus musculus, UniProt Q01102); experiment: P-Selectin binding to 4T1 cells by flow cytometry; conditions: for P-Selectin binding to 4T1 cells after treatment of the cells: cells pre-treated with the agent; for Inhibition of P-Selectin binding to 4T1 cells: P-Selectin pre-treated with chondroitin sulfate, various concentrations
Experimental: Unless specified otherwise, flow cytometry was conducted as follows. Acquisition and analysis of data was performed on an EPICS®™ XL™.flow cytometer (Beckman Coulter, Inc., Fullerton, Calif.). Cells were passed to new flasks 24 hours before measuring lectin binding. The subconfluent monolayer of cells was detached with Cellstripper (Mediatech, Inc. Herndon, Va.) and washed with Dulbecco's phosphate buffered saline with Ca++ and Mg++ (Mediatech, Inc. Herndon, Va.). Cells were transferred to FACS buffer (Dulbecco's Phosphate Buffered Saline, 1% BSA and 0.1% Sodium Azide), counted and diluted to ˜1-2×10^6/ml. Monoclonal antibodies were added to a final concentration of 10 μg/ml. Cells were incubated on ice for 30 minutes, washed twice with FACS buffer, before the addition of FITC-conjugated streptavidin (2 μg/ml) for lectin analysis or FITC-conjugated goat anti-mouse immunoglobulin for monoclonal analysis. Cells were then washed and fixed with paraformaldehyde, before analysis by flow cytometry.
Recombinant E- and P-Selectin/Fc (human IgG) were purchased from R&D systems, Minneapolis, Minn. These recombinant molecules and FITC-conjugated anti-human IgG were used for binding analyses in flow cytometry assays. Human and murine recombinant selectins were used for human and murine cells, respectively.
Binding of recombinant P-Selectin to cells was examined after treatment with heparinase and chondroitinase ABC or in the presence of various concentrations of heparin and chondroitin sulfate A, B, C, and E (Seikagaku America, Falmouth, Mass.).

4T1 cells [1] = experiment: Lung colonies in mice with 4T1 fat pad tumors injected daily with CS; assay type: in vivo, mouse; conditions: 30 days after transplant
Experimental: FIG. 20. Chondroitin sulfate inhibits metastasis. Mice were injected with 4T1 cells into fact pads. After tumors were palpable (3-4 days after transplant) they were daily injected with CS intraperitoneally (ip) or subcutaneously (sc). Micer were sacrificed 30 days after transplant and lung colonies were quantified. Saline injection was used as a control. Comparisons were made between groups treated with CS and the saline group as control. NS, not significant. Average and SD with three animals per group is shown.
Mice were injected with 4T1 cells into fat pads. After tumors were palpable (3-4 days after transplant) the mice were daily injected with CS intraperitoneally (ip) or subcutaneously (sc). The mice were sacrificed 30 days after transplant and lung colonies were quantified. CS was dissolved in saline for injection. Saline control injection by either sc or ip routes produced similar results.

NRP-1 = experiment: Real-time PCR gene expression in MCF-7 cells after 5azadC: NRP-1; assay type: cell-based, human; conditions: for Relative expression level of NRP-1 compared with no 5azadC: MCF-7 cells
Experimental: (§1) Real-time PCR was conducted to quantify mRNAs of five genes in four different human breast cancer tumor lines. The assayed genes were Syndecan-1 (SDC-1), Neuropilin-1 (NRP-1), Syndecan-4 (SDC-4), MCSP, and estrogen receptor 1. The tumor lines were MCF7, MDA-MD-468 (MDA-468), MDA-MB-231 (MDA-231), and MDA-MET. MCF-7 and MDA-468 are less aggressive. MDA-231 is an aggressive cell line, and MDA-MET is a subline of MDA-231 that metastasizes to bone. The quantity of each mRNA was assayed in comparison to 18s RNA. NRP-1, SDC-4 and MCSP expression was higher in the two more aggressive cell lines than in either of the two less aggressive cell lines. […] MCF-7 and MDA-468 are epithelial-like, while both MDA-231 and MDA-MET cells are mesenchymal type. Thus, high expression of NRP-1, MCSP and SDC-4 may be related to an epithelial to mesenchymal transition, which is a phenotypic event associated with more metastasis and aggressive growth.
(§2) In this experiment, gene expression levels were assayed by real-time PCR and comparison to 18S RNA levels. The dependence of gene expression on methylation levels was tested by treating tumor cells with varying levels of 5-aza-2′-deoxycytidine (5azadC), which is a demethylating agent (Table 6). Methylation of CpG islands is a well-known mechanism of gene control. Methylation decreases expression of genes whose promoters are methylated. The expression of NRP-1, CHST11, and MCPG each increased with increasing 5azadC concentration, which indicates they are under methylation control, with increased methylation repressing expression of the genes. Urokinase (uPA) was used as a positive control.

CHST11 = experiment: Real-time PCR gene expression in MCF-7 cells after 5azadC: CHST11; assay type: cell-based, human; conditions: for Relative expression level of CHST11 compared with no 5azadC: MCF-7 cells
Experimental: as §1, §2

MCPG = experiment: Real-time PCR gene expression in MCF-7 cells after 5azadC: MCPG; assay type: cell-based, human; conditions: for Relative expression level of MCPG compared with no 5azadC: MCF-7 cells
Experimental: as §1, §2

uPA = experiment: Real-time PCR gene expression in MCF-7 cells after 5azadC: uPA; assay type: cell-based, human; conditions: positive control gene
Experimental: as §1, §2

Synd-4 = experiment: Real-time PCR gene expression in MCF-7 cells after 5azadC: Synd-4; assay type: cell-based, human; conditions: for Relative expression level of Synd-4 compared with no 5azadC: MCF-7 cells
Experimental: as §1, §2

4T1 cells [2] = experiment: Binding of thrombin-treated Calcein-AM-labeled mouse platelets to 4T1 cells; assay type: cell-based; conditions: 100 U/ml final concentration
Experimental: To examine if heparin can block the interaction of mouse platelets with tumor cells, 4T1 cells were mixed with Calcein-AM-labeled mouse platelets in the presence of mouse thrombin with or without heparin. Mouse thrombin was added to stimulate relocation of P-Selectin to platelet surface and tumor cells were then analyzed by flow cytometry for Calcein-AM staining, indicating platelet attachment. […] Blood was collected into sodium citrate (0.38% w/v) from naive mice and platelets were isolated from plasma by centrifugation. Platelet were washed and labeled with 5 μM final Calcein-AM (Molecular Probes, Eugene, Oreg., USA) for 15 minutes at 37° C. Platelets were then washed and incubated with 1 U/ml thrombin (Haematologic Technologies Inc, Essex Junction, Vt.) at 37° C. for 10 minutes. Heparin (Baxter Healthcare Corp., Deerfield, Ill., 100 U/ml final concentration) was then added to the mixture of platelets and thrombin, and incubated with 4T1 cells in flow cytometry tubes, for 15 minutes at room temperature, then acquired and analyzed by flow cytometry.

4T1 cells [3] = experiment: Spontaneous lung metastasis of 4T1 tumors in BALB/c mice after heparin, clonogenic assay; assay type: in vivo, mouse; conditions: 100 units 30 minutes before tumor cell inoculation; 26 days after inoculation
Experimental: BALB/c female mice (6-8 weeks old) were purchased from Harlan (Indianapolis, Ind.). Tumors were established as described earlier (9). Briefly, each mouse was inoculated subcutaneously in the abdominal mammary gland with 5×10^4 4 T1 cells. To establish a functional correlation between P-Selectin ligand expression of 4T1 cells and their metastatic ability in vivo, we injected mice with 100 units of heparin 30 minutes before tumor cell inoculation. Mice were sacrificed 26 days after tumor inoculation, lungs were harvested and metastatic cells were detected by clonogenic assay. […] All mice that were injected with PBS as control developed lung metastasis.

tumor cells = conditions: clinically relevant dose; reference 8; cited from earlier work

P-Selectin, sequence (Q01102 with tags, fused parts or gaps limits assumed): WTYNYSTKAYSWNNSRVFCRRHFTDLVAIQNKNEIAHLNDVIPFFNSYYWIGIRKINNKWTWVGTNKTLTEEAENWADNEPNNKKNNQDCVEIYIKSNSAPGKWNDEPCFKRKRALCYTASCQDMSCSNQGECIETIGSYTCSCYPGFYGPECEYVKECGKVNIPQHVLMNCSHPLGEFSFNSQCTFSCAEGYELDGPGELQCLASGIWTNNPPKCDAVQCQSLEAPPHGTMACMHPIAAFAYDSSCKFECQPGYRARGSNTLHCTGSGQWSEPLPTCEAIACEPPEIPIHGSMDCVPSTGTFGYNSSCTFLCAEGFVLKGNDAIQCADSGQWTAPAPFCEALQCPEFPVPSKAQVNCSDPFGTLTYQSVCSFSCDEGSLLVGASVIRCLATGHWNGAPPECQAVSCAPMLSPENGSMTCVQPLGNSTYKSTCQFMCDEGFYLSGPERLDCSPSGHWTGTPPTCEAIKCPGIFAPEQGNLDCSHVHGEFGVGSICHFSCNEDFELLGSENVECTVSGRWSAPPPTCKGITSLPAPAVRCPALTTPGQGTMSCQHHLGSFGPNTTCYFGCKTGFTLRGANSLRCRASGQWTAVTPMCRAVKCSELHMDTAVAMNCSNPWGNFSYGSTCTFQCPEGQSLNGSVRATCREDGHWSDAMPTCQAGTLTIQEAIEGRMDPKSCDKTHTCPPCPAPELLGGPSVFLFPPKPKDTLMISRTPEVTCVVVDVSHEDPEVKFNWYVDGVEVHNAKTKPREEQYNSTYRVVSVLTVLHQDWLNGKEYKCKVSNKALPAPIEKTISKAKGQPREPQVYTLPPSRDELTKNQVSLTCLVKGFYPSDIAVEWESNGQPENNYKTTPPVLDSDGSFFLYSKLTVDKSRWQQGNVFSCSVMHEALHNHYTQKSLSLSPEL

Neuraminidase: Neuraminidase (Vibrio cholerae) from Sigma, used at 50 mU/ml
P-Selectin binding to 4T1 cells after treatment of the cells (P-Selectin): did not change

chondroitin sulfate E [CS E]
Concentration giving complete inhibition of P-Selectin binding (P-Selectin; 4T1 cells): 0.5 mg/mL | Inhibition of P-Selectin binding to 4T1 cells (P-Selectin): inhibited P-Selectin binding; also recorded: effectively inhibit

chondroitin sulfate A [CS A]
Inhibition of P-Selectin binding to 4T1 cells (P-Selectin): minimal inhibitory effects

[Na+].[O-][Cl+2]([O-])[O-] [sodium chlorate]
P-Selectin binding to 4T1 cells after treatment of the cells (P-Selectin): elimination of P-Selectin binding in a majority of the cells

O=C(O)CN(CCN(CC(=O)O)CC(=O)O)CC(=O)O [EDTA]
P-Selectin reactivity with 4T1 cells in presence of EDTA (P-Selectin; high concentrations (20 and 40 mM)): inhibited P-Selectin reactivity only at high concentrations | P-Selectin reactivity with 4T1 cells in presence of EDTA (P-Selectin; low concentration (10 mM)): not blocked

chondroitin sulfate C [CS C]
Inhibition of P-Selectin binding to 4T1 cells (P-Selectin): minimal inhibitory effects

chondroitin sulfate [CS]
Metastasis (lung colonies) compared to saline control (4T1 cells [1]; 1 mg subcutaneously daily): decreased metastasis | Metastasis (lung colonies) compared to saline control (4T1 cells [1]; 10 mg subcutaneously daily): decreased metastasis | Metastasis (lung colonies) compared to saline control (4T1 cells [1]; intraperitoneally daily): did not appear to

dermatan sulfate [CS B]
Concentration dependence of inhibition of P-Selectin binding (P-Selectin; 0.005-5.0 mg/ml): inhibitory effects only at higher concentrations | Inhibition of P-Selectin binding to 4T1 cells (P-Selectin): inhibited P-Selectin binding

Nc1ncn([C@H]2C[C@H](O)[C@@H](CO)O2)c(=O)n1 [5azadC, 5-aza-2′-deoxycytidine]
Relative expression level of NRP-1 compared with no 5azadC (NRP-1; 0.5 μM): 1.04 | Relative expression level of NRP-1 compared with no 5azadC (NRP-1; 1 μM): 1.50 | Relative expression level of NRP-1 compared with no 5azadC (NRP-1; 5 μM): 1.72 | Relative expression level of NRP-1 compared with no 5azadC (NRP-1; 20 μM): 1.71 | Expression of NRP-1 with increasing 5azadC concentration (NRP-1; trend over 0.5-20 μM): increased | Relative expression level of CHST11 compared with no 5azadC (CHST11; 0.5 μM): 1.34 | Relative expression level of CHST11 compared with no 5azadC (CHST11; 1 μM): 1.68 | Relative expression level of CHST11 compared with no 5azadC (CHST11; 5 μM): 3.7 | Relative expression level of CHST11 compared with no 5azadC (CHST11; 20 μM): 4.00 | Expression of CHST11 with increasing 5azadC concentration (CHST11; trend over 0.5-20 μM): increased | Relative expression level of MCPG compared with no 5azadC (MCPG; 0.5 μM): 1.3 | Relative expression level of MCPG compared with no 5azadC (MCPG; 1 μM): 1.4 | Relative expression level of MCPG compared with no 5azadC (MCPG; 5 μM): 1.7 | Relative expression level of MCPG compared with no 5azadC (MCPG; 20 μM): 2.1 | Expression of MCPG with increasing 5azadC concentration (MCPG; trend over 0.5-20 μM): increased | Relative expression level of uPA compared with no 5azadC (uPA; 0.5 μM): 2.2 | Relative expression level of uPA compared with no 5azadC (uPA; 1 μM): 2.9 | Relative expression level of uPA compared with no 5azadC (uPA; 5 μM): 3.2 | Relative expression level of uPA compared with no 5azadC (uPA; 20 μM): 3.9 | Relative expression level of Synd-4 compared with no 5azadC (Synd-4; 0.5 μM): 0.7 | Relative expression level of Synd-4 compared with no 5azadC (Synd-4; 1 μM): 0.5 | Relative expression level of Synd-4 compared with no 5azadC (Synd-4; 5 μM): 0.8 | Relative expression level of Synd-4 compared with no 5azadC (Synd-4; 20 μM): 0.6 | Syndecan-4 expression with 5azadC treatment (Synd-4; trend over 0.5-20 μM): decreased or remained approximately constant

Heparin
Binding of thrombin treated platelets to tumor cells (4T1 cells [2]): reduced | Mice with complete absence of metastases in lung (4T1 cells [3]): six mice out of total of seven | Number of mice positive for established lung metastases, Positive (total) (4T1 cells [3]): *1 (7) | Lung metastasis in experimental models (tumor cells): inhibited lung metastasis | Effective dose for inhibition of P-Selectin binding, as concentration (P-Selectin; corresponds to 120 units): 0.7 mg/mL | Inhibition of P-Selectin binding to cells (P-Selectin; sLex-Neg 4T1 cell variant, recombinant P-Selectin pre-incubated with 0.7-120 Units heparin): efficiently inhibited P-Selectin binding to cells in a dose dependent manner | Effective dose for inhibition of P-Selectin binding (P-Selectin; sLex-Neg 4T1 cells, FIG. 10): 120 units
